Earlier results, collected in US20050026871A1 (priority 2002, published 2005).

Key:
[1] = Physicians' Desk Reference, Rocaltrol Oral Solution; cited from earlier work
[2] = reported in the literature; cited from earlier work

Structure (SMILES) | time to peak serum concentrations after ingestion [1] | pH at which alendronate is best absorbed [2]
C=C1/C(=C\C=C2/CCC[C@]3(C)[C@@H]([C@H](C)CCCC(C)(C)O)CC[C@@H]23)C[C@@H](O)C[C@@H]1O [calcitriol, 1α,25-dihydroxyvitamin D3] | three to six | 
NCCCC(O)(P(=O)(O)O)P(=O)(O)O [Alendronate, alendronate] |  | ~6
